Measurements: patent EP0514216A1, “Antihypotensive benzofuran derivatives with N-linked 1H-imidazolyl-methyl-5-carboxamide substituents” (GLAXO GROUP LIMITED, priority 1991, dated 1992)

Test system: renal-ligated hypertensive rats
Experiment: anti-hypertensive activity in vivo using renal-ligated hypertensive rats
Parameters: unit not given here
Conditions: for Reduction in diastolic blood pressure after 7h. i.a.: 0.5mg/kg intra-arterially (i.a.); for Reduction in diastolic blood pressure after 7h. p.o.: 0.5mg/kg orally (p.o.)
Procedure: Compounds of the present invention are also analysed for their anti-hypertensive activity in vivo using renal-ligated hypertensive rats.

SMILES | Reduction in diastolic blood pressure after 7h. i.a. | Reduction in diastolic blood pressure after 7h. p.o.
CCc1nc(Cl)c(C(N)=O)n1Cc1ccc2oc(-c3ccccc3NS(=O)(=O)C(F)(F)F)c(Br)c2c1 [Example 1, 1-[[3-Bromo-2-[2-[[(trifluoromethyl)sulphonyl]amino]phenyl]-5-benzofuranyl]methyl]-4-chloro-2-ethyl-1H-imidazole-5-carboxamide] | -49 | -55
CCCc1nc(Cl)c(C(=O)NC)n1Cc1ccc2oc(-c3ccccc3NS(=O)(=O)C(F)(F)F)c(Br)c2c1 [Example 2, 1-[[3-Bromo-2-[2-[[(trifluoromethyl)sulphonyl]amino]phenyl]-5-benzofuranyl]methyl]-4-chloro-N-methyl-2-propyl-1H-imidazole-5-carboxamide] | -43 | -60
CCc1nc(Cl)c(C(=O)NC)n1Cc1ccc2oc(-c3ccccc3NS(=O)(=O)C(F)(F)F)c(Br)c2c1 [Example 12, 1-[[3-Bromo-2-[2-[[(trifluoromethyl)sulphonyl]amino]phenyl]-5-benzofuranyl]methyl]-4-chloro-2-ethyl-N-methyl-1H-imidazole-5-carboxamide] | -42 | -31
CCc1nc(C)c(C(=O)NC)n1Cc1ccc2oc(-c3ccccc3NS(=O)(=O)C(F)(F)F)c(Br)c2c1 [Example 13, 1-[[3-Bromo-2-[2-[[(trifluoromethyl)sulphonyl]amino]phenyl]-5-benzofuranyl]methyl]-2-ethyl-4-methyl-N-methyl-1H-imidazole-5-carboxamide] | -39 | -54
